From ChEMBL document CHEMBL1126863 (J Med Chem, 1993) come the findings set out here.

The inhibition is the share of the control response that was lost under treatment. Low readings indicate a response near the control, high ones a response far below the control. Usually Ki stands for a dissociation constant, usually derived from enzyme kinetics or from competition with a known ligand. Read a high Ki as weaker binding. In general, Kd refers to the concentration at which binding is half-saturated. Lower therefore signals tighter binding.

Square brackets hold non-standard residues; d marks the D form. Peptide text beside a SMILES is read from it. pGlu = O=C1CC[C@@H](C(=O)O)N1

Test [1] deals with Substance-P receptor (Cavia porcellus) (UniProt P30547). Briefly: Evaluated for the binding affinity against NK1 receptor at 1 uM.
Target sequence in this assay (P30547 whole entry, looked up): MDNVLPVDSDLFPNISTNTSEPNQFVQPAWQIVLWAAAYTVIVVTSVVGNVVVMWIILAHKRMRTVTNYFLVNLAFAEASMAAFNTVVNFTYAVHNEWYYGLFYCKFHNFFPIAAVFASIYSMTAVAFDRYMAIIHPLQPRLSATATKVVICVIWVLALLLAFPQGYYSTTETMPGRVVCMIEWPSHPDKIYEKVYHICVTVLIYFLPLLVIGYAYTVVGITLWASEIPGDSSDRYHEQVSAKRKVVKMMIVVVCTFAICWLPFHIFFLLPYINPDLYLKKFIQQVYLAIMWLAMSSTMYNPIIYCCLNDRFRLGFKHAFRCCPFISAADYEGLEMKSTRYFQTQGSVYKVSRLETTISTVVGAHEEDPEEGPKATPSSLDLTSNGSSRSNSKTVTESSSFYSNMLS
Test [2] concerns the target T1, Substance-P receptor (Cavia porcellus, UniProt P30547). Briefly: Evaluated for the binding affinity against NK1 receptor.
Test [3] concerns the target T1, Substance-P receptor. The test is described as follows: Evaluated for the binding affinity towards NK1 receptor in the striatal membranes of guinea pig. The class given is cell membranes, Striatum, Membrane.
The target in test [4] is Substance-P receptor (Cavia porcellus) (UniProt P30547). The following applies: Striatum, Membrane, 10 uM.
Target sequence in this assay (P30547 whole entry): as the sequence (P30547 whole entry, looked up) above
Description: Evaluated for the binding affinity towards NK1 receptor in the striatal membranes of guinea pig at 10 uM
Test [5] shares this target. Briefly: Evaluated for the binding affinity against NK1 receptor.
Target sequence in this assay (P30547 whole entry, looked up): as above

T1 sequence (P30547 whole entry): as the sequence (P30547 whole entry, looked up) above

`CC[C@H](C)[C@H](NC(=O)[C@H](Cc1ccccc1)NC(=O)[C@H](C)NC(=O)[C@H](CC(=O)O)NC(=O)[C@H](CCCCN)NC(=O)[C@H](CO)NC(=O)[C@@H]1CCCN1C(=O)[C@@H]1CCC(=O)N1)C(=O)NCC(=O)N[C@@H](CC(C)C)C(=O)N[C@@H](CCSC)C(N)=O` ([pGlu]PSKDAFIGLM-NH2) gave an inhibition in test [1] of 15%.

Molecule `CC(C)C[C@H](NC(=O)CN(C)C(=O)[C@H](Cc1ccccc1)NC(=O)[C@H](Cc1ccccc1)NC(=O)[C@H](CCC(N)=O)NC(=O)[C@H](CCC(N)=O)NC(=O)[C@@H]1CCCN1C(=O)[C@H](CCCCN)NC(=O)[C@@H]1CCCN1C(=O)[C@@H](N)CCCNC(=N)N)C(=O)N[C@@H](CCS(C)(=O)=O)C(N)=O` registered an inhibition constant (Ki) in test [2] of 20 nM.

In turn, `[3H]c1cc([3H])cc([C@@H]2NCCC[C@@H]2NCc2ccccc2OC)c1` registered a Kd in test [3] of 0.32 nM.

Molecule `COc1ccccc1CN[C@@H]1CCCN[C@@H]1c1ccccc1` had an inhibition in test [4] of 50%.

The molecule `COc1ccccc1CN[C@H]1CCCN[C@H]1c1ccccc1` (stereo in doubt; 5) [CP-99994] registered an inhibitory constant (Ki) in test [3] of 0.17 nM.

For `CSCC[C@H](NC(=O)[C@H](CC(C)C)NC(=O)CNC(=O)[C@@H](NC(=O)[C@H](Cc1ccccc1)NC(=O)[C@H](CO)NC(=O)[C@H](CC(=O)O)NC(=O)[C@@H](NC(=O)[C@H](CCCCN)NC(=O)[C@@H](N)Cc1cnc[nH]1)[C@@H](C)O)C(C)C)C(N)=O` [NEUROKININ A], the Ki in test [5] amounted to 3700 nM.

The molecule `COc1ccccc1CN[C@H]1CCCN[C@H]1c1ccccc1` (stereo in doubt; 6b) [CP-99994] displayed a Ki in test [3] of 0.27 nM.
